Common to all, as to format: cell-based
Data set [1] can be described thus: Toxicity in human CFBE cells assessed as reduction in cell viability at 5 to 100 uM incubated for 3 hrs by MTT assay. For orientation: Tetrazolium dyes change colour on reduction, which living cells bring about.
The nature of data set [2]: Toxicity in human CFBE cells assessed as reduction in cell viability incubated for 3 hrs by LDH assay.
The nature of data set [3]: Toxicity in human CFBE cells assessed as reduction in cell viability incubated for 12 hrs by LDH assay.
Data set [4] is described as follows: Toxicity in human CFBE cells assessed as reduction in cell viability at 100 uM incubated for 3 hrs by LDH assay relative to control 1% triton.
The nature of data set [5]: Toxicity in human CFBE cells assessed as reduction in cell viability at 5 to 100 uM incubated for 12 hrs by MTT assay.
Data set [6] can be described thus: Toxicity in human CFBE cells assessed as reduction in cell viability at 40 uM incubated for 24 hrs by LDH assay relative to control 1% triton.

Take `CC1(C)Cc2ccccc2-c2n[nH]c(=S)n21`: the Activity result in data set [1] was “Non-Toxic”; in data set [2], “Non-Toxic”; in data set [3] it was “Toxic”; in data set [4], “<= 10%”; in data set [5] it was “Non-Toxic”.

Take `CN1CCc2cccc3c2[C@@H]1Cc1ccc(O)c(O)c1-3.Cl`: the Activity result is “Non-Toxic” in data set [1], “Dose-dependent effect” in data set [2], “Dose-dependent effect” in data set [3] and “Non-Toxic” in data set [5].

Take `C[C@]12CC[C@@H]3c4cc(O)c(O)cc4CC[C@H]3[C@@H]1CC[C@@H]2O`: the Activity entry in data set [1] is “Non-Toxic”; in data set [2], “Dose-dependent effect”; in data set [3], “Dose-dependent effect”; in data set [5], “Non-Toxic”; in data set [6] it was 20 to 40%.

For the origin of these results see ChEMBL document CHEMBL4417627, “Dab2 inhibitors for the prevention and treatment of cystic fibrosis” (2017).
